Measurements published in patent US6255335A, “Substituted 2-oxo-alkanoic acid-[2-(indol-3-yl)-ethyl] amides” (Bayer Aktiengesellschaft, priority 1998, dated 2001).
In brackets after ≈: the same amount, converted by molar mass.

Assays:
Type in all cases: cell-based
Staph. aureus = test: MIC by serial dilution on iso-sensitest agar, Staph. aureus; settings: Staphylococcus aureus, 37° C., about 20 hours
Procedure: (§1) The minimum inhibitory concentrations (MIC) of the compounds according to the invention were determined by serial dilution methods on iso-sensitest agar (Oxoid). For each test substance, a number of agar plates were prepared which, each with a doubled dilution, contained decreasing concentrations of the active compound. The agar plates were inoculated using a multipoint inoculator (Denley). For inoculation, overnight cultures of the pathogens were used which had previously been diluted such that each inoculation point contained about 10^4 colony-forming particles. The inoculated agar plates were incubated at 37° C., and the bacterial growth was read off after about 20 hours. The MIC value (μg/ml) indicates the lowest active compound concentration at which no growth could be detected with the naked eye.

Staph. interm. = test: MIC by serial dilution on iso-sensitest agar, Staph. interm.; settings: strain ATCC 29663; 37° C., about 20 hours
Procedure: as §1

Staph. hyicus = test: MIC by serial dilution on iso-sensitest agar, Staph. hyicus; settings: Staphylococcus hyicus, 20 h, 37° C., about 20 hours
Procedure: as §1

[1] = strain 9621, actual clinical isolate
[2] = strain 9622, actual clinical isolate
[3] = strain 9637, actual clinical isolate
[4] = strain 9641, actual clinical isolate

Compound | MIC (Staph. aureus; ATCC6538, strain ATCC 6538) | MIC (Staph. aureus; ATCC25923, strain ATCC 25923) | MIC (Staph. aureus; ATCC29213, strain ATCC 29213) | MIC (Staph. interm.) | MIC (Staph. hyicus; [1]) | MIC (Staph. hyicus; [2]) | MIC (Staph. hyicus; [3]) | MIC (Staph. hyicus; [4])
CCC(C)C(=O)C(=O)NCCc1c[nH]c2ccccc12 (stereo not shown) [A, reference compound] | 0.25 µg/mL (≈ 0.918 µM) | 0.125 µg/mL (≈ 0.459 µM) | 0.125 µg/mL (≈ 0.459 µM) | 8 µg/mL (≈ 29.4 µM) | 1 µg/mL (≈ 3.67 µM) | 0.5 µg/mL (≈ 1.84 µM) | 0.25 µg/mL (≈ 0.918 µM) | 0.25 µg/mL (≈ 0.918 µM)
CC(C)CC(=O)C(=O)NCCc1cn(C)c2ccccc12 [Compound 2] | 0.03 µg/mL (≈ 0.105 µM) | 0.03 µg/mL (≈ 0.105 µM) | 0.03 µg/mL (≈ 0.105 µM) | 2 µg/mL (≈ 6.98 µM) | 0.03 µg/mL (≈ 0.105 µM) | 0.03 µg/mL (≈ 0.105 µM) | 0.03 µg/mL (≈ 0.105 µM) | 0.03 µg/mL (≈ 0.105 µM)
CCC(C)C(=O)C(=O)NCCc1cn(Cc2ccccc2)c2ccccc12 (stereo not shown) [Compound 6] | 0.125 µg/mL (≈ 0.345 µM) | 0.125 µg/mL (≈ 0.345 µM) | 0.125 µg/mL (≈ 0.345 µM) | 8 µg/mL (≈ 22.1 µM) | 1 µg/mL (≈ 2.76 µM) | 1 µg/mL (≈ 2.76 µM) | 0.125 µg/mL (≈ 0.345 µM) | 0.125 µg/mL (≈ 0.345 µM)
CC(C)CC(=O)C(=O)NCCc1cn(C(C)C)c2ccccc12 [Compound 4] | 0.125 µg/mL (≈ 0.398 µM) | 0.06 µg/mL (≈ 0.191 µM) | 0.25 µg/mL (≈ 0.795 µM) | 2 µg/mL (≈ 6.36 µM) | 0.06 µg/mL (≈ 0.191 µM) | 0.25 µg/mL (≈ 0.795 µM) | 0.125 µg/mL (≈ 0.398 µM) | 0.125 µg/mL (≈ 0.398 µM)
CCC(C)C(=O)C(=O)NCCc1cn(C)c2ccccc12 (stereo not shown) [Compound 1] | 0.015 µg/mL (≈ 0.0524 µM) | 0.015 µg/mL (≈ 0.0524 µM) | 0.015 µg/mL (≈ 0.0524 µM) | 2 µg/mL (≈ 6.98 µM) | 0.06 µg/mL (≈ 0.21 µM) | 0.06 µg/mL (≈ 0.21 µM) | 0.015 µg/mL (≈ 0.0524 µM) | 0.015 µg/mL (≈ 0.0524 µM)
CC(C)CC(=O)C(=O)NCCc1c[nH]c2ccccc12 [B, reference compound] | 0.125 µg/mL (≈ 0.459 µM) | 0.25 µg/mL (≈ 0.918 µM) | 0.25 µg/mL (≈ 0.918 µM) | 2 µg/mL (≈ 7.34 µM) | 0.25 µg/mL (≈ 0.918 µM) | 0.03 µg/mL (≈ 0.11 µM) | 0.25 µg/mL (≈ 0.918 µM) | 0.25 µg/mL (≈ 0.918 µM)
CCC(C)C(=O)C(=O)NCCc1cn(C(C)C)c2ccccc12 (stereo not shown) [Compound 3] | 0.03 µg/mL (≈ 0.0954 µM) | 0.03 µg/mL (≈ 0.0954 µM) | 0.03 µg/mL (≈ 0.0954 µM) | 4 µg/mL (≈ 12.7 µM) | 1 µg/mL (≈ 3.18 µM) | 0.5 µg/mL (≈ 1.59 µM) | 0.03 µg/mL (≈ 0.0954 µM) | 0.03 µg/mL (≈ 0.0954 µM)
CC(C)CC(=O)C(=O)NCCc1cn(-c2ccccc2)c2ccccc12 [Compound 5] | 0.03 µg/mL (≈ 0.0861 µM) | 0.06 µg/mL (≈ 0.172 µM) | 0.06 µg/mL (≈ 0.172 µM) | 1 µg/mL (≈ 2.87 µM) | 0.06 µg/mL (≈ 0.172 µM) | 0.015 µg/mL (≈ 0.043 µM) | 0.06 µg/mL (≈ 0.172 µM) | 0.06 µg/mL (≈ 0.172 µM)
